Laboratory results from patent US20190343860A1 (Saint Louis University, priority 2016, published 2019).

Legend:
hA1AR = target: T1, hA1AR (Homo sapiens, UniProt P30542); conditions: species h; inhibition of binding at 10 μM; tested in ref 26; cited from earlier work
T1 construct: expressed in transfected cells
T1 sequence (P30542 1-326): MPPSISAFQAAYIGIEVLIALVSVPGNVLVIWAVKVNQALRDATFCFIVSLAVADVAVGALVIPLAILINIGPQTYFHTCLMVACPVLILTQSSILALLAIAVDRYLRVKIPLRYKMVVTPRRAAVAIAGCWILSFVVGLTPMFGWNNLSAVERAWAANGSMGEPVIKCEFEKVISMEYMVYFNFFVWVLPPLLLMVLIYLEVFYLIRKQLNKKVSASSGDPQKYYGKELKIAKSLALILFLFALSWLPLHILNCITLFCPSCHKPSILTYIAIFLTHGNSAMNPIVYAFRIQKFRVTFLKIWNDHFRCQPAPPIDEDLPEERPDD

mA2AAR = target: T2, mA2AAR (Mus musculus, UniProt Q60613); assay: Radioligand binding, membranes of HEK293 cells stably expressing mA2AAR; conditions: species m; inhibition of binding at 10 μM
T2 construct: expressed in transfected cells

mA1AR = target: T3, mA1AR (Mus musculus, UniProt Q60612); assay: Radioligand binding, membranes of HEK293 cells stably expressing mA1AR; conditions: species m; inhibition of binding at 10 μM
T3 construct: expressed in transfected cells
T3 sequence (Q60612 1-326): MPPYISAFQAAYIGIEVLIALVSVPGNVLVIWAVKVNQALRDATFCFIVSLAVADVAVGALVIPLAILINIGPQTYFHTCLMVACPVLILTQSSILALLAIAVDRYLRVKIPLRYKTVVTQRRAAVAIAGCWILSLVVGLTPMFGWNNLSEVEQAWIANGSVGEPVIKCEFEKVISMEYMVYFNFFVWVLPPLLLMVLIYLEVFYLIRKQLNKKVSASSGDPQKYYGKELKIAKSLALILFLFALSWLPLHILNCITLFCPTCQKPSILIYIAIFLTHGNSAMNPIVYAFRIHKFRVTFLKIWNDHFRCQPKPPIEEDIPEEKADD

hA2AAR = target: T4, hA2AAR (Homo sapiens, UniProt P29274); conditions: species h; inhibition of binding at 10 μM; tested in ref 26; cited from earlier work
T4 construct: expressed in transfected cells

mA3AR = target: T5, mA3AR (Mus musculus, UniProt Q61618); assay: Radioligand binding, membranes of HEK293 cells stably expressing mA3AR; conditions: species m; inhibition of binding at 10 μM
T5 construct: expressed in transfected cells
T5 sequence (Q61618 1-319): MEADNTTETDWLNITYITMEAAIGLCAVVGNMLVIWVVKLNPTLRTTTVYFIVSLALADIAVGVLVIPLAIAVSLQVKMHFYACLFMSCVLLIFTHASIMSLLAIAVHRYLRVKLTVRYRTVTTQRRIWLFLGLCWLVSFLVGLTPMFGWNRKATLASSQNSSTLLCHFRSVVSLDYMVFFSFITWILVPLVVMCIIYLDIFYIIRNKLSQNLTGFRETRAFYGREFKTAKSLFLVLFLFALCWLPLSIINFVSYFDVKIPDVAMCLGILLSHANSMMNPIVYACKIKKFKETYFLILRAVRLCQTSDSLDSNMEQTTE

hA3AR = target: T6, hA3AR (Homo sapiens, UniProt P0DMS8); assay: cAMP assay, inhibition of forskolin-stimulated cAMP in hA3AR-transfected CHO cells; format: cell-based; conditions: species h; percentage of maximal effect of 5′-N-ethylcarboxamidoadenosine 43, each at 10 μM
T6 construct: expressed in transfected cells
T6 sequence (P0DMS8 1-318): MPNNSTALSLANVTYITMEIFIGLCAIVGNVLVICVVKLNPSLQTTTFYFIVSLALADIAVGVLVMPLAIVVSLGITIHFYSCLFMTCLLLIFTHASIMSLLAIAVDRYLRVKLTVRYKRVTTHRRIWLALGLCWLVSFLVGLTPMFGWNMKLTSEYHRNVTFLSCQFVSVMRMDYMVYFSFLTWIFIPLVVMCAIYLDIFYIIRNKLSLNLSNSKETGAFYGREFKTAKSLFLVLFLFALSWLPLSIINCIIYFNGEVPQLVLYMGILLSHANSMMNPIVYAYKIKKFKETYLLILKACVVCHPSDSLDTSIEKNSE

[1] = tested on: mitochondria in peripheral sensory afferents (PNSAs); assay: Mitochondrial ATP production in peripheral sensory afferents after in vivo treatment; parameters: species or system rat; conditions: 0.1 mg/kg/d i.p. concomitant with oxaliplatin
Procedure: ATP assays. Saphenous nerves were harvested from rats 25 days after the initiation of chemotherapy treatments, then minced & teased apart as previously described. Saphenous nerve explants were transferred to MiR05 respiratory buffer & baseline ATP samples were taken after 5 min or after 15 min treatment with MRS5980 or vehicle. ADP (1 mM), glutamate (5 mM), succinate (5 mM), maleate (5 mM) were added for 5 min & samples were taken for ATP. ATP levels were measured by a flash luciferin-luciferase assay (Promega Enliten ATP Assay; Promega, Madison, Wis.) & normalized to citrate synthase activity (Sigma, St Louis, Mo.) in explants homogenates.

[2] = tested on: intraepidermal nerve fibers (IENFs); assay: Incidence of intraepidermal nerve fibers (IENFs) in chemotherapy-treated rats; conditions: p<0.05
[3] = Oxaliplatin-induced mechano-hypersensitivity (paw withdrawal threshold, von Frey); format: in vivo, rat; conditions: 0.1 mg/kg/d i.p. concomitant with oxaliplatin
From the text: Mean±SEM, n=6/group, ANOVA with Bonferroni comparisons. *P<0.05 vs. day 0; #P<0.05 vs. vehicle &†P<0.05 vs. Oxaliplatin.

[4] = tested on: isolated mouse liver mitochondria; assay: Mitochondrial membrane potential (ΔΨm), TMRM flow cytometry of isolated mitochondria; format: biochemical; conditions: n=1
Procedure: FIG. 12. MRS5980 reduces ADP-dependent dissipation of mitochondrial membrane potential (ΔΨm). ADP (1 mM) in the presence of Complex I and II substrates reduced the ΔΨm in isolated mouse liver mitochondrial (decreased TMRM signal). The degree of dissipation ΔΨm was lessened with MRS5980 (10 μM) treatment prior to adding ADP n=1, 10,000 mitochondria counted/sample.
FIG. 13. MRS5980 reduces calcium-dependent dissipation of mitochondrial ΔΨm. The addition of Ca^2+ (0.5-15 μM) to isolated mouse liver mitochondria reduced the mitochondria ΔΨm in (decreased TMRM signal). The mitochondrial ΔΨιη was sustained with MRS5980 (10 μM) treatment. n=1, 10,000 mitochondria counted/sample.
Mitochondrial membrane potential (ΔΨm). Mitochondria from mouse & rat liver were isolated for flow cytometry as previously described. Mitochondria (57 μg) were loaded with Mitotracker DeepRed FM (50 nM) & TMRM (100 nM). Mitochondria were then treated for 5 min with MRS5980 (10 μM) or vehicle then stimulated with ADP (1 mM) or Ca^2+ (0-15 μM) for 1 min. Mitochondria (10,000 counts) were detected using Mitotracker Deep Red FM (Abs/EM 644/665 nm) signal & the ΔΨm state determined by the dynamic median fluorescence signal of TMRM using a FACSCanto II (BD Biosciences).

[5] = tested on: PNSA mitochondria (saphenous nerve explants); assay: ATP production in saphenous nerve explants after direct drug application; parameters: species or system rat; conditions: 1 μM
Procedure: FIG. 14. […] Mean±SEM, n=6/group *P=0.019 vs, t-test
ATP assays. Saphenous nerves were harvested from rats 25 days after the initiation of chemotherapy treatments, then minced & teased apart as previously described. Saphenous nerve explants were transferred to MiR05 respiratory buffer & baseline ATP samples were taken after 5 min or after 15 min treatment with MRS5980 or vehicle. ADP (1 mM), glutamate (5 mM), succinate (5 mM), […] (5 mM) were added for 5 min & samples were taken for ATP. ATP levels were measured by a flash luciferin-luciferase assay (Promega Enliten ATP Assay; Promega, Madison, Wis.) & normalized to citrate synthase activity (Sigma, St Louis, Mo.) in explants homogenates.

[6] = tested on: intraepidermal nerve fibers (IENFs); conditions: rat, in vivo

T4 sequence (P29274 whole entry): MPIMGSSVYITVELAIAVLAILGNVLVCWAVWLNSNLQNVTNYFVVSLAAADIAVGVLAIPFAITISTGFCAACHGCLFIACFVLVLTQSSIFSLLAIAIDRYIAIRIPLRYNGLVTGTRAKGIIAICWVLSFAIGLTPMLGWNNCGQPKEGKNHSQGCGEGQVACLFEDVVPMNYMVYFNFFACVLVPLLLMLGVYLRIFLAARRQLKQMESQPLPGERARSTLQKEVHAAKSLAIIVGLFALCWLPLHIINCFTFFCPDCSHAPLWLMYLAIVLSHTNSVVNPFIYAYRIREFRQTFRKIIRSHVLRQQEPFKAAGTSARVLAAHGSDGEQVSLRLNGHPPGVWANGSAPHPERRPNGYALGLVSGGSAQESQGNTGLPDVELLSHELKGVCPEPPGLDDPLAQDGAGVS
T2 sequence (Q60613 whole entry): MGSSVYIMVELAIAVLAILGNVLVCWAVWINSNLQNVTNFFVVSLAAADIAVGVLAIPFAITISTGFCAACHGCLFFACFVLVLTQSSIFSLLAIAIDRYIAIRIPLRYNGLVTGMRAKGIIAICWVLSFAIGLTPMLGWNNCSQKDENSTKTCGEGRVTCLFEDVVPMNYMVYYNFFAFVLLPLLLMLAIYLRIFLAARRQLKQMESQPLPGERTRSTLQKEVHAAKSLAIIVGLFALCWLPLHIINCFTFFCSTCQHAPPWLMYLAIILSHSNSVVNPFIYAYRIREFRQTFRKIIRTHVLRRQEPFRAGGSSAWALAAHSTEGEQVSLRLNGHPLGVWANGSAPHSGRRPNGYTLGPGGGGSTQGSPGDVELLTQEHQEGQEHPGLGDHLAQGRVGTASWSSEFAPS

Row | Structure (SMILES) | % inhibition A1 (hA1AR) | % inhibition A2A (mA2AAR) | % inhibition A1 (mA1AR) | % inhibition A2A (hA2AAR) | % inhibition A3 (mA3AR) | % efficacy (hA3AR) [%] | also measured
1 | CCNc1nc(C#Cc2ccccc2Cl)nc2c1ncn2[C@H]1[C@H](O)[C@H](O)[C@@H]2C[C@@H]21 [Cmpd 10] | (25% ± 11%) | (11% ± 1%) | (47% ± 8%) | (17% ± 6%) | (50% ± 9%) | 7.0 ± 5.2 | –
2 | O[C@@H]1[C@H](O)[C@@H]2C[C@@H]2[C@H]1n1cnc2c(NCC(c3ccccc3)c3ccccc3)nc(C#Cc3ccccc3Cl)nc21 [Cmpd 15] | (26% ± 4%) | (16% ± %) | (23% ± 1%) | (22% ± 2%) | (54 ± 3%) | 2.6 ± 1.3 | –
3 | CNC(=O)[C@@]12C[C@@H]1[C@@H](n1cnc3c(NCc4cccc(Cl)c4)nc(C#Cc4ccc(F)c(F)c4)nc31)[C@H](O)[C@@H]2O [MRS5698] | – | – | – | – | – | – | Mitochondrial ATP production in PNSAs [1]: prevents the deficiencies in mitochondrial ATP production; Incidence of IENFs vs. oxaliplatin alone ([2]; rats treated with oxaliplatin+MRS5698): significantly more IENFs; Incidence of IENFs vs. paclitaxel alone ([2]; rats treated with paclitaxel+MRS5698): significantly more IENFs; Development of mechano-hypersensitivity (Paw Withdrawal Threshold) [3]: prevents
4 | CNC(=O)[C@@]12C[C@@H]1[C@@H](n1cnc3c(NC)nc(C#Cc4ccc(Cl)s4)nc31)[C@H](O)[C@@H]2O [MRS5980] | – | – | – | – | – | – | ADP-dependent dissipation of mitochondrial membrane potential (ΔΨm) ([4]; 10 μM prior to ADP (1 mM)): lessened; Calcium-dependent dissipation of mitochondrial ΔΨm ([4]; 10 μM, Ca2+ 0.5-15 μM): sustained; ATP production following stimulation of Complex I and II ([5]; explants from oxaliplatin-treated rats, day 25): reverses oxaliplatin-induced deficiencies in ATP production; ATP production following stimulation of Complex I and II ([5]; explants from vehicle-treated rats): modestly enhanced ATP production
5 | CC(=O)O[C@H]1C(=O)[C@@]2(C)[C@H]([C@H](OC(=O)c3ccccc3)[C@]3(O)C[C@H](OC(=O)[C@H](O)[C@@H](NC(=O)c4ccccc4)c4ccccc4)C(C)=C1C3(C)C)[C@]1(OC(C)=O)CO[C@@H]1C[C@@H]2O [paclitaxel] | – | – | – | – | – | – | Incidence of IENFs vs. Naive rats [6]: statistically significantly fewer IENFs
